{"source": "ChEMBL document CHEMBL5584321", "about": "“Chemoenzymatic Synthesis of DNP-Functionalized FGFR1-Binding Peptides as Novel Peptidomimetic Immunotherapeutics for Treating Lung Cancer” (J Med Chem, 2024)", "key": {"[1]": {"test": "Toxicity in BALB/c mouse xenografted with human NCI-H1581 cells assessed as change in lung weight at 20 mg/kg,SC administrated once daily for 12 days", "assay_type": "organism-based", "settings": "in vivo, 288 h, time 12 day"}, "[2]": {"tested_on": "L6", "test": "Binding affinity to human full-length wild type FGFR1c stably expressed in rat L6 cells assessed as fold change in fluorescence intensity at 10 uM by antibody recruiting based flow cytometry relative to Pep1", "assay_type": "cell-based"}, "[3]": {"test": "Toxicity in BALB/c mouse xenografted with human NCI-H1581 cells assessed as cell necrosis in heart at 20 mg/kg,SC administrated once daily for 12 days by hematoxylin and eosin staining based analysis", "assay_type": "organism-based", "settings": "in vivo, 288 h, time 12 day"}, "[4]": {"test": "Toxicity in BALB/c mouse xenografted with human NCI-H1581 cells assessed as change in liver weight at 20 mg/kg,SC administrated once daily for 12 days", "assay_type": "organism-based", "settings": "in vivo, 288 h, time 12 day"}, "[5]": {"test": "Toxicity in BALB/c mouse xenografted with human NCI-H1581 cells assessed as cell necrosis in spleen at 20 mg/kg,SC administrated once daily for 12 days by hematoxylin and eosin staining based analysis", "assay_type": "organism-based", "settings": "in vivo, 288 h, time 12 day"}, "[6]": {"tested_on": "L6", "test": "Antiproliferative activity against FGF2-induced rat L6 cells stably expressing human full-length FGFR1c assessed as inhibition of cell growth incubated for 36 hrs by CCK-8 assay", "assay_type": "functional, cell-based"}, "[7]": {"tested_on": "L6", "test": "Induction of cell lysis in rat L6 cells at 1 uM incubated for 1 hr by complement dependent cytotoxicity based CCK-8 assay relative to control", "assay_type": "functional"}, "[8]": {"tested_on": "L6", "test": "Induction of apoptosis in FGF2-induced rat L6 cells stably expressing human full-length FGFR1c assessed as upregulation of cleaved caspase-3 expression at 50 uM incubated for 24 hrs by Western blotting analysis", "assay_type": "functional, cell-based"}, "[9]": {"test": "Toxicity in BALB/c mouse xenografted with human NCI-H1581 cells assessed as inflammation in spleen at 20 mg/kg,SC administrated once daily for 12 days by hematoxylin and eosin staining based analysis", "assay_type": "organism-based", "settings": "in vivo, 288 h, time 12 day"}, "[10]": {"test": "AUC in immunized Sprague-Dawley rat at 1.5 mg/kg,SC administration measured upto 24 hrs by fluorescence based microplate reader assay", "assay_type": "ADME, organism-based", "settings": "in vivo"}, "[11]": {"tested_on": "L6", "test": "Binding affinity to FGFR1c in rat L6 cells assessed as increase in green fluorescence signal incubated for 1 hr by Alexa-488 staining based confocal fluorescence microscopic analysis", "assay_type": "cell-based"}, "[12]": {"test": "Renal toxicity in BALB/c mouse xenografted with human NCI-H1581 cells assessed as change in creatinine level at 20 mg/kg,SC administrated once daily for 12 days", "assay_type": "organism-based", "settings": "in vivo, 288 h, time 12 day"}, "[13]": {"tested_on": "NCI-H1581", "test": "Antitumor activity against human NCI-H1581 cells xenografted BALB/c mouse model assessed as inhibition of tumor growth at 20 mg/kg,SC administrated once daily for 12 days relative to control", "assay_type": "functional", "settings": "NCI-H1581, 288 h, time 12 day"}, "[14]": {"test": "Toxicity in BALB/c mouse xenografted with human NCI-H1581 cells assessed as inflammation in heart at 20 mg/kg,SC administrated once daily for 12 days by hematoxylin and eosin staining based analysis", "assay_type": "organism-based", "settings": "in vivo, 288 h, time 12 day"}, "[15]": {"tested_on": "NCI-H1581", "test": "Binding affinity to FGFR1c in human NCI-H1581 cells assessed as increase in fluorescence signal by antibody recruiting based flow cytometry", "assay_type": "cell-based"}, "[16]": {"tested_on": "NCI-H1581", "test": "Binding affinity to FGFR1c in human NCI-H1581 cells assessed as increase in green fluorescence signal incubated for 1 hr by Alexa-488 staining based confocal fluorescence microscopic analysis", "assay_type": "cell-based"}, "[17]": {"tested_on": "NCI-H1581", "test": "Antitumor activity against human NCI-H1581 cells xenografted BALB/c mouse model assessed as induction of apoptosis by measuring increase in TUNEL positive cells at 20 mg/kg,SC administrated once daily for 12 days", "assay_type": "functional, organism-based", "settings": "time 12.0 day"}, "[18]": {"test": "Toxicity in BALB/c mouse xenografted with human NCI-H1581 cells assessed as cell necrosis in lung at 20 mg/kg,SC administrated once daily for 12 days by hematoxylin and eosin staining based analysis", "assay_type": "organism-based", "settings": "in vivo, 288 h, time 12 day"}, "[19]": {"tested_on": "NCI-H1581", "test": "Binding affinity to FGFR1c in human NCI-H1581 cells assessed as fold change in fluorescence intensity at 10 uM by antibody recruiting based flow cytometry relative to Pep1", "assay_type": "cell-based"}, "[20]": {"test": "Half life in immunized Sprague-Dawley rat at 1.5 mg/kg,SC administration measured upto 24 hrs by fluorescence based microplate reader assay", "assay_type": "ADME, organism-based", "settings": "in vivo"}, "[21]": {"tested_on": "NCI-H1581", "test": "Antitumor activity against human NCI-H1581 cells xenografted BALB/c mouse model assessed as tumor necrosis at 20 mg/kg,SC administrated once daily for 12 days by hematoxylin and eosin staining based analysis", "assay_type": "functional, organism-based", "settings": "time 12.0 day"}, "[22]": {"tested_on": "NCI-H1581", "test": "Binding affinity to FGFR1c in human NCI-H1581 cells assessed as fluorescence intensity at 10 uM by antibody recruiting based flow cytometry", "assay_type": "cell-based"}, "[23]": {"test": "Renal toxicity in BALB/c mouse xenografted with human NCI-H1581 cells assessed as change in urea level at 20 mg/kg,SC administrated once daily for 12 days", "assay_type": "organism-based", "settings": "in vivo, 288 h, time 12 day"}, "[24]": {"tested_on": "L6", "test": "Induction of apoptosis in FGF2-induced rat L6 cells stably expressing human full-length FGFR1c assessed as upregulation of cleaved PARP expression at 50 uM incubated for 24 hrs by Western blotting analysis", "assay_type": "functional, cell-based"}, "[25]": {"tested_on": "NCI-H1581", "test": "Antitumor activity against human NCI-H1581 cells xenografted BALB/c mouse model assessed as inhibition of tumor proliferation by measuring decrease in Ki67 positive cells at 20 mg/kg,SC administrated once daily for 12 days", "assay_type": "functional, organism-based", "settings": "time 12.0 day"}, "[26]": {"tested_on": "L6", "test": "Binding affinity to human full-length wild type FGFR1c stably expressed in rat L6 cells assessed as fluorescence intensity at 10 uM by antibody recruiting based flow cytometry", "assay_type": "cell-based"}, "[27]": {"test": "Toxicity in BALB/c mouse xenografted with human NCI-H1581 cells assessed as cell necrosis in kidney at 20 mg/kg,SC administrated once daily for 12 days by hematoxylin and eosin staining based analysis", "assay_type": "organism-based", "settings": "in vivo, 288 h, time 12 day"}, "[28]": {"tested_on": "L6", "test": "Antiproliferative activity against FGF2-induced rat L6 cells stably expressing human full-length FGFR1c assessed as inhibition of cell growth at 100 uM incubated for 36 hrs by CCK-8 assay relative to control", "assay_type": "functional"}, "[29]": {"test": "Binding affinity to CM5 sensor chip immobilized human full-length wild type FGFR1c assessed as dissociation constant by SPR analysis"}, "[30]": {"test": "Toxicity in BALB/c mouse xenografted with human NCI-H1581 cells assessed as inflammation in lung at 20 mg/kg,SC administrated once daily for 12 days by hematoxylin and eosin staining based analysis", "assay_type": "organism-based", "settings": "in vivo, 288 h, time 12 day"}, "[31]": {"test": "Toxicity in BALB/c mouse xenografted with human NCI-H1581 cells assessed as inflammation in liver at 20 mg/kg,SC administrated once daily for 12 days by hematoxylin and eosin staining based analysis", "assay_type": "organism-based", "settings": "in vivo, 288 h, time 12 day"}, "[32]": {"tested_on": "L6", "test": "Induction of apoptosis in FGF2-induced rat L6 cells stably expressing human full-length FGFR1c assessed as downregulation of BCL-2 expression at 50 uM incubated for 24 hrs by Western blotting analysis", "assay_type": "functional, cell-based"}, "[33]": {"test": "Cmax in immunized Sprague-Dawley rat at 1.5 mg/kg,SC administration measured upto 24 hrs by fluorescence based microplate reader assay", "assay_type": "ADME, organism-based", "settings": "in vivo"}, "[34]": {"test": "Toxicity in BALB/c mouse xenografted with human NCI-H1581 cells assessed as change in heart weight at 20 mg/kg,SC administrated once daily for 12 days", "assay_type": "organism-based", "settings": "in vivo, 288 h, time 12 day"}, "[35]": {"test": "Hepatotoxicity in BALB/c mouse xenografted with human NCI-H1581 cells assessed as change in ALT level at 20 mg/kg,SC administrated once daily for 12 days", "assay_type": "toxicity, organism-based", "settings": "in vivo, 288 h, time 12 day"}}, "note": "Active and inactive are the calls of the source. The calls are words filed in the database; no cut-off is given here. Where a SMILES comes first, the peptide text is derived from it. The star is where a group is joined. X1 = O=[N+]([O-])c1ccc(OCCOCCOCCOCCOCCOCCN*)c([N+](=O)[O-])c1", "data": [{"compound": "CC(C)C[C@H](NC(=O)[C@H](C)NC(=O)[C@@H](NC(=O)[C@H](Cc1ccc(O)cc1)NC(=O)[C@H](Cc1c[nH]c2ccccc12)NC(=O)[C@H](CO)NC(=O)[C@H](CO)NC(=O)[C@H](Cc1ccc(O)cc1)NC(=O)[C@H](CCCCN)NC(=O)[C@H](CCCNC(=N)N)NC(=O)[C@H](CO)NC(=O)[C@H](CCCNC(=N)N)NC(=O)[C@@H](N)Cc1ccc(O)cc1)C(C)C)C(=O)N[C@@H](CCCCN)C(=O)N[C@@H](CCCNC(=N)N)C(=O)N[C@@H](CC(C)C)C(=O)N1CCC[C@H]1C(=O)N[C@@H](CCC(=O)O)C(=O)N[C@H](C(=O)NCC(=O)NCC(=O)NCC(=O)NCCOCCOCCOCCOCCOCCOc1ccc([N+](=O)[O-])cc1[N+](=O)[O-])[C@@H](C)O", "note": "(H-YRSRKYSSWYVALKRLPETGGG-X1)", "values": [{"measurement": "Activity", "setting": "[1]", "value": "Non-Toxic"}, {"measurement": "fold change (FC)", "setting": "[2]", "value": 200}, {"measurement": "Activity", "setting": "[3]", "value": "Non-Toxic"}, {"measurement": "Activity", "setting": "[4]", "value": "Non-Toxic"}, {"measurement": "Activity", "setting": "[5]", "value": "Non-Toxic"}, {"measurement": "Activity", "setting": "[6]", "value": "Dose-Dependent Effect"}, {"measurement": "Activity", "setting": "[7]", "value": "inactive"}, {"measurement": "Activity", "setting": "[8]", "value": "Active"}, {"measurement": "Activity", "setting": "[9]", "value": "Non-Toxic"}, {"measurement": "AUC at 24 h", "setting": "[10]", "value": 2600, "unit": "ng·h/mL"}, {"measurement": "Activity", "setting": "[11]", "value": "inactive"}, {"measurement": "Activity", "setting": "[12]", "value": "Non-Toxic"}, {"measurement": "inhibition in vivo at 20 mg/kg", "setting": "[13]", "value": 72.7, "unit": "%"}, {"measurement": "Activity", "setting": "[14]", "value": "Non-Toxic"}, {"measurement": "Activity", "setting": "[15]", "value": "Dose-Dependent Effect"}, {"measurement": "Activity", "setting": "[16]", "value": "Active"}, {"measurement": "Activity", "setting": "[17]", "value": "Active"}, {"measurement": "Activity", "setting": "[18]", "value": "Non-Toxic"}, {"measurement": "fold change (FC)", "setting": "[19]", "value": 36}, {"measurement": "half-life", "setting": "[20]", "value": 18.1, "unit": "h"}, {"measurement": "Activity", "setting": "[21]", "value": "Active"}, {"measurement": "Flu intensity", "setting": "[22]", "value": "5.7 10^3No_unit"}, {"measurement": "Activity", "setting": "[23]", "value": "Non-Toxic"}, {"measurement": "Activity", "setting": "[24]", "value": "Active"}, {"measurement": "Activity", "setting": "[25]", "value": "Active"}, {"measurement": "Flu intensity", "setting": "[26]", "value": "1.8 10^4No_unit"}, {"measurement": "Activity", "setting": "[27]", "value": "Non-Toxic"}, {"measurement": "inhibition at 100 µM", "setting": "[28]", "value": 100, "unit": "%"}, {"measurement": "Kd", "setting": "[29]", "value": 5.01, "unit": "µM"}, {"measurement": "Activity", "setting": "[30]", "value": "Non-Toxic"}, {"measurement": "Activity", "setting": "[31]", "value": "Non-Toxic"}, {"measurement": "Activity", "setting": "[32]", "value": "Active"}, {"measurement": "Cmax", "setting": "[33]", "value": 273, "unit": "ng/mL"}, {"measurement": "Activity", "setting": "[34]", "value": "Non-Toxic"}, {"measurement": "Activity", "setting": "[35]", "value": "Non-Toxic"}]}]}
